Experimental data as given in patent US20160368919A1, “NOVEL PYRIDINE PYRAZINONES AS BET-FAMILY BROMODOMAIN INHIBITORS” (Pfizer Inc., priority 2015, published 2016).

Columns and labels:
Format in all cases: cell-based
[1] = tested on: LPS-induced IL-6 production in human whole blood; test: IL-6 human whole blood (HWB) assay, LPS-stimulated, HTRF detection; conditions: 1 ng/ml LPS, 4 hours
[2] = tested on: MYC, SOX2, involucrin and Keratin 14 expression in HCC2429 cells; test: Biomarker analysis in HCC2429 cells (RT-PCR, Western blot)
Description: HCC2429 cells were plated into a 6-well plate (250,000 cells/well). Cells were treated with compounds or control vehicle (DMSO) at the indicated concentrations for 72 hrs. Cells were collected, washed in PBS, and split for western blot and RNA analysis.

LnCaP cells, AR(+) = test: CRPC cell proliferation assay (CellTiter-Glo), LnCaP; conditions: CTG at 96h
Description: Castrate-Resistant Prostate Cancer (CRPC) Cell Proliferation Assay • Cells were seeded into 96-well plates at 2,000-10,000 cells/well in 100 uL medium. Four AR(+) cell lines (LnCaP, C4-2 (parental), C4-2AR-WT and C4-2AR—F876L) and one AR(−) cell line (DU-145) were studied. Compound treated cells were analyzed for cell density at 96h, using CellTiter-Glo® (CTG) reagent (Promega).

[3] = HCC2429, Western blot, 72 hrs, concentration-dependent

SMILES: CCC(=O)N(C)c1ccc2nc(NCCC(=O)O)c(=O)n([C@@H](CC)c3ccccc3)c2n1 [Example 10, N-{6-[methyl(propanoyl)amino]-3-oxo-4-[(1S)-1-phenylpropyl]-3,4-dihydropyrido[2,3-b]pyrazin-2-yl}-beta-alanine]
- IC50 [1]: 0.53 µM
- mRNA expression of involucrin ([2]; HCC2429, RT-PCR, 72 hours, 50 nM, 200 nM and 500 nM, dose dependent): increased
- MYC protein level [2, 3]: down-regulated
- SOX2 protein level [2, 3]: down-regulated
- Max % Inh (LnCaP cells, AR(+)): 69%
- IC50 (LnCaP cells, AR(+); Homo sapiens): 0.32 µM
